The text below walks through data of publication PMC1084349 (BMC Neuroscience, 2005).

Assay [1] has as its target T1, hTAS1R2-hTAS1R3 (Homo sapiens, UniProt Q7RTX0+Q8TE23).
T1 sequence (Q8TE23 20-839): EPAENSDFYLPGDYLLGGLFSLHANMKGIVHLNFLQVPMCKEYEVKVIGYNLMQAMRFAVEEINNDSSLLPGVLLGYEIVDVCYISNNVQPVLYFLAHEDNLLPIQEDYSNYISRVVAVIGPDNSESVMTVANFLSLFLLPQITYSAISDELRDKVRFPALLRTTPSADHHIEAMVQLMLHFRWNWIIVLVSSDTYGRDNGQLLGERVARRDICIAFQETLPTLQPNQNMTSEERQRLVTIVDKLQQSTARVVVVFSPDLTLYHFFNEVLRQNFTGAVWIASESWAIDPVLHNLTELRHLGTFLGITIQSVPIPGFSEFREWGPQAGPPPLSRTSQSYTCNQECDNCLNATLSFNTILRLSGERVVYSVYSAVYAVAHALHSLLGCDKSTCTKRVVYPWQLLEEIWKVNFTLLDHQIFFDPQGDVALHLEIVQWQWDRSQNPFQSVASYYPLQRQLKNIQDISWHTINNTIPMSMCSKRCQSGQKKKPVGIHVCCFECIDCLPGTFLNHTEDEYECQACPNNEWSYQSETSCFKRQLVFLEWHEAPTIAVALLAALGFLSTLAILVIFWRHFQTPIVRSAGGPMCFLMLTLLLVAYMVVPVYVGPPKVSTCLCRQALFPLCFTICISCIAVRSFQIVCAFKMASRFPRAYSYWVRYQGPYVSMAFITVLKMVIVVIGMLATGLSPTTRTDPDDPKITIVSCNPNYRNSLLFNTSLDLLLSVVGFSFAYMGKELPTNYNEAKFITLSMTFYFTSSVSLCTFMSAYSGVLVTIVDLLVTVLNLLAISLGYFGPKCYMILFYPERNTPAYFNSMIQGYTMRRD
T1 sequence (Q7RTX0 21-852): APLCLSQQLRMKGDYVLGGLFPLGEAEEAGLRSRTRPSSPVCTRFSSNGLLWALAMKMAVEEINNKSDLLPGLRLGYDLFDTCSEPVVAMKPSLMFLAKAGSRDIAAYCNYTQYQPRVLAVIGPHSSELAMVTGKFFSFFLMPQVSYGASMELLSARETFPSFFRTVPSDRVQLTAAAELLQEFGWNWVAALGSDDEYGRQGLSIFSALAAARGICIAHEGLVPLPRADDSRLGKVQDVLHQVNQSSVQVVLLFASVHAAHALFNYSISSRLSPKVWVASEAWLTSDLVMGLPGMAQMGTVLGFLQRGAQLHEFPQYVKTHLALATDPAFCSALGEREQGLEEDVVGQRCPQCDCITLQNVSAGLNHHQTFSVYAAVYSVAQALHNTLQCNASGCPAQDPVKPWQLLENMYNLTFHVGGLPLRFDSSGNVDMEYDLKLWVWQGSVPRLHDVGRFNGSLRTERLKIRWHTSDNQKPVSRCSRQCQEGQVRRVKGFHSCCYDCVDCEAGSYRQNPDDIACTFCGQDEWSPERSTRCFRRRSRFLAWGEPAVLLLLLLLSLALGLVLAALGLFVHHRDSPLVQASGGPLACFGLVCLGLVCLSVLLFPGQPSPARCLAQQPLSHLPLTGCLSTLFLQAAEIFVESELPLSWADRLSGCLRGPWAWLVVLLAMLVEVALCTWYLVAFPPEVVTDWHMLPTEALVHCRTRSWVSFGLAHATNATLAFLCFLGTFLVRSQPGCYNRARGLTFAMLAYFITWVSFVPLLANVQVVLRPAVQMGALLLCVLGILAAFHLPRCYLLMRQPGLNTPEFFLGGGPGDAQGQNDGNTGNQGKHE
Kind of assay: Calcium mobilization (FLIPR) in transfected HEK293T-Gα16gust44 cells, human sweet receptor. Particulars: asp 15 mM; cyc 30 mM; neo 0.1 mM; sac 10 mM; suc 100 mM; stev 1 mM. (Calcium flux is commonly read through the fluorescence of an indicator in the cells.)

Assay [2] addresses T2, rTas1r2-hTAS1R3 (UniProt Q7RTX0+Q9Z0R7).
T2 sequence (Q9Z0R7 20-843): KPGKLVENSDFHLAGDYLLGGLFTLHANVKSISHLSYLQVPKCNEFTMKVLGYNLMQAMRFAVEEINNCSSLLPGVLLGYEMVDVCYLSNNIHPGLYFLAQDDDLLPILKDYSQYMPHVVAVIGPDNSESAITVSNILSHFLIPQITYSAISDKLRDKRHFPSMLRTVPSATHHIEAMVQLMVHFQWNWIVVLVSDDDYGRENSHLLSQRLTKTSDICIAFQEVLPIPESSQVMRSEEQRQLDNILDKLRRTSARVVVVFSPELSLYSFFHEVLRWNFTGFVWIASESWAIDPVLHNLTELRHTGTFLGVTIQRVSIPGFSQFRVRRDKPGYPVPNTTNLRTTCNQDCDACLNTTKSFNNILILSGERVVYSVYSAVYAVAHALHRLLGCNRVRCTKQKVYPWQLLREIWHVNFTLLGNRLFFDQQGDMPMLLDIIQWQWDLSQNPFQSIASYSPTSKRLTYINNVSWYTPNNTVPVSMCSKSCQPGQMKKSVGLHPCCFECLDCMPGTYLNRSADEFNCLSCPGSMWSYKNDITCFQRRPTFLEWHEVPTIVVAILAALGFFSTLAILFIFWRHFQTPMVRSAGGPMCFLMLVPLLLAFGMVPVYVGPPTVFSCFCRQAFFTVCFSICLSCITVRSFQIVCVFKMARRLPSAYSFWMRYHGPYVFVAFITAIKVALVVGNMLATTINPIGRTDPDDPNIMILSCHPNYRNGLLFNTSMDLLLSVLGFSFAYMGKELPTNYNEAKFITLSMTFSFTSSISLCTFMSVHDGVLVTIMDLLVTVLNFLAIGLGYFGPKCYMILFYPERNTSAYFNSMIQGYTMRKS
T2 sequence (Q7RTX0 21-852): T1 sequence (Q7RTX0 21-852)
Kind of assay: Calcium mobilization (FLIPR), interspecies combination. The note with it: asp 15 mM; cyc 30 mM; neo 0.1 mM; sac 10 mM; suc 100 mM; stev 1 mM; markedly reduced amplitudes.

Where a SMILES comes first, the peptide text is derived from it.

With `COC(=O)[C@H](Cc1ccccc1)NC(=O)[C@@H](N)CC(=O)O` [aspartame] (HELM PEPTIDE1{D.F.[CO[*:1]]}$$$$V2.0), the “activation of receptor (calcium response)” value in assay [1] is “activated the human receptor”; in assay [2], “failed to activate”.
The like results for `O=S(=O)(O)NC1CCCCC1` [cyclamate] were, in that order, “activated the human receptor” and “clearly responded”.
The like results for `COc1ccc(CCC(=O)c2c(O)cc(O[C@@H]3O[C@H](CO)[C@@H](O)[C@H](O)[C@H]3O[C@@H]3O[C@@H](C)[C@H](O)[C@@H](O)[C@H]3O)cc2O)cc1O` [neohesperidine dihydrochalcone] were, in that order, “activated the human receptor” and “clearly responded”.
The like results for `C=C1C[C@@]23CC[C@H]4[C@@](C)(CCC[C@@]4(C)C(=O)O[C@@H]4O[C@H](CO)[C@@H](O)[C@H](O)[C@H]4O)[C@@H]2CC[C@]1(O[C@@H]1O[C@H](CO)[C@@H](O)[C@H](O)[C@H]1O[C@@H]1O[C@H](CO)[C@@H](O)[C@H](O)[C@H]1O)C3` [stevioside] were, in that order, “activated the human receptor” and “failed to activate”.
Turning to `OC[C@H]1O[C@@](CO)(O[C@H]2O[C@H](CO)[C@@H](O)[C@H](O)[C@H]2O)[C@@H](O)[C@@H]1O` [sucrose], the “activation of receptor (calcium response)” value is “activated the human receptor” in assay [1] and “failed to activate” in assay [2].
